Results taken from US20210343422A1, “METHODS FOR DYNAMIC MODELING AND CLOSED-LOOP CONTROL OF INFLAMMATION” (Georgia Tech Research Corporation, priority 2018, published 2021).
“Also recorded” adds a separate entry of the source.

Columns and labels:
[1] = test system: RAW 264.7 murine immortalized macrophages; assay: iNOS expression by immunocytochemistry (ICC), normalized to nuclei count; assay type: cell-based; conditions: for sensitivity of iNOS response, IFN-γ versus TNF-α as second pro-inflammatory stimulus: FIG. 9
Description: (§1) All studies in this work were performed using RAW 264.7 murine immortalized macrophages (ATCC TIB-71™). Macrophages were expanded, maintained, and cultured in basal macrophage medium, which is comprised of DMEM (Thermo Fisher Scientific; Ser. No. 12/430,062), 10% FBS (Thermo Fisher Scientific; 26140079), and 1% antibiotic/antimycotic (Sigma-Aldrich; A5955).
(§2) Raw 264.7 macrophages were cultured to 70% confluence before conditioning began. Cells were conditioned by addition of medium with lipopolysaccharide (LPS; Sigma-Aldrich; L2880), interferon gamma (IFN-γ; R&D Systems; 485-MI), or interleukin (IL)-4 (PeproTech; 214-14) as indicated.
(§3) Raw 264.7 macrophages were conditioned with LPS or IFN-γ alone to quantify individual stimulus dynamic response, with LPS or IFN-γ sequentially to recover iNOS expression via orthogonal input, or with LPS […] to quantify supra-additivity and model predictive control strategy response. Pre-treatment, 24 hours of IL-4 prior to addition of LPS or IFN-γ, was used to induce an anti-inflammatory, non-nave state for experiments involving hysteretic effects.
For immunocytochemistry (ICC) experiments, macrophages were cultured in 96-well microplates. Macrophages were fixed in 4% PFA solution for 15 minutes and blocked with 5% BSA+3% goat serum in PBS for one hour. Cells were stained with α-iNOS antibody (Cell Signaling Technology; Cat. No. 13120; 1:400) and DAPI for normalization to nuclei count. Cells were imaged at 10× magnification (Zeiss Observer Z1). Image fluorescence was thresholded and total fluorescence above the threshold was normalized to nuclei number.
(§4) ICC and Western blot data were aggregated and iNOS expression for each independent experiment was normalized to the positive control with Raw264.7 cells treated with 1 μg/mL LPS for 24 hours (dynoDataLoad.m). iNOS dynamics plots were generated using the Gramm package for MATlAB. Data at sampled time points (0, 24 48, and 72 hours) were expressed as mean±SEM for separated data (N=38 for LPS single input experiments; N=8 for LPS repeated input experiments; N=8 for LPS cycled input experiments; N=32 for IFN-γ single input experiments; N=16 for IFN-γ repeated input experiments; N=16 for IFN-γ cycled input experiments). To generate interpolation curves data were smoothed using the Savitzky-Golay (sgolay) option in the curve fitting toolbox. Shaded band on curve represents root mean squared (RMS) cross validation error on smoothed data (macrophageDyn_figGenv3.m).

[2] = test system: RAW 264.7 murine immortalized macrophages; assay: iNOS expression by quantitative Western blot, normalized to α-tubulin; assay type: cell-based
Description: as §1, §2
For Western blot experiments, cells were cultured in 6-well plates then lysed using RIPA buffer with PMSF (Sigma-Aldrich), and cOmplete Mini (Sigma-Aldrich). Membranes were probed for α-tubulin (Sigma-Aldrich, Cat. No. T6074; 1:4000) and iNOS (1:1000). Membranes were imaged on a LiCor Odyssey CLx machine and quantified in ImageStudio Lite. iNOS band intensity was normalized to α-tubulin intensity to yield iNOS expression.
as §4

Raw264.7 cells = assay: Arg1 expression for M2 polarization validation; assay type: cell-based, murine; conditions: IL-4 pre-conditioning, FIG. 11
Description: as §3
To model Raw264.7 cells starting in a non-nave state, the inventors pre-conditioned macrophages with IL-4 for 24 hours prior to pro-inflammatory stimulation. […] Reference source not found. For each LPS concentration, iNOS expression for non-M2 polarized LPS-only treated cells were divided by iNOS expression values from cell treated with an array of IL-4 concentrations for 24 hours followed by 24 hours of LPS. The matrix of LPS and IL-4 concentrations was interpolated using 3rd order linear least squares, which provided the inverse of the continuous input concentration-dependent attenuation factor γ. […] The M2 driven attenuation of M1 response reflects the systemic immunosuppression that poses a major risk to post-traumatic or surgical injury patients.

[3] = physiologically relevant concentration range

## TNF-α
[1]; [3]
  sensitivity of iNOS response, IFN-γ versus TNF-α as second pro-inflammatory stimulus: more sensitive to IFN-γ

## lipopolysaccharide [LPS]
[1]; LQG controller input: 24 hours of 20 ng/ml, then 48 hours at 1 μg/ml LPS
  duration of iNOS level: sustained this iNOS level through 48 hours, but not through 72 hours
[1]; LQG controller input: 24 hours of 20 ng/ml, then 48 hours at 1 μg/ml LPS, read at 24 hours
  iNOS expression level, of the reference: 60%
[1]; PI controller input: 40 ng/ml LPS for 24 hours, then 1 μg/ml until 72 hours, read at 24 hours, max = 24 hour level given 1 μg/ml LPS
  iNOS expression, peak, of normalized max iNOS: approximately 70%
[1]; PI controller input: 40 ng/ml LPS for 24 hours, then 1 μg/ml, read at 48 hours
  iNOS expression, of max: 50 % max
[1]; above 1 μg/ml LPS
  iNOS response above the high LPS concentration: response tapered off
[1]; combined PI and LQG three-step LPS input strategy
  iNOS expression at 72 hours: did not keep activation high at 72 hours
[1]; multiple administrations of LPS, or 24 hours in control media before LPS re-stimulation
  iNOS expression dynamics on repeated or cycled LPS stimulation: did not alter iNOS expression dynamics; also recorded: not modulated
[1]; physiologically relevant concentration range, up to 1 μg/ml LPS
  LPS dose-to-iNOS response relationship: monotonic
[2]; single administration of 1 μg/ml LPS
  time of peak in iNOS expression: 24 h
[2]; single administration of 1 μg/ml LPS, LPS not removed
  decay of iNOS expression to baseline after the peak: 48 h

B1: interleukin (IL)-4 (protein, UniProt P07750 21-140, looked up)
Interleukin-4: HIHGCDKNHLREIIGILNEVTGEGTPCTEMDVPNVLTATKNTTESELVCRASKVLRIFYLKHGKTPCLKKNSSVLMELQRLFRAFRCLDSSISCTMNESKSTSLKDFLESLKSIMQMDYS
notes: interleukin-4 (PeproTech; 214-14), used to induce an anti-inflammatory, non-naive state
[1]; IL-4 for 24 hours, then 24 hr of LPS
  iNOS expression after IL-4 pre-conditioning: attenuated expression of iNOS
Raw264.7 cells
  Arg1 expression: increased expression of Arg1
[2]; IL-4 treatment, FIG. 8, n=2
  iNOS protein expression: not expressed

B2: interferon gamma (protein, UniProt P01580 23-155, looked up)
Interferon gamma: HGTVIESLESLNNYFNSSGIDVEEKSLFLDIWRNWQKDGDMKILQSQIISFYLRLFEVLKDNQAISNNISVIESHLITTFFSNSKAKKDAFMSIAKFEVNNPQVQRQAFNELIRVVHQLLPESSLRKRKRSRC
notes: interferon gamma (R&D Systems; 485-MI), second orthogonal pro-inflammatory input
[1]; 100 ng/ml IFN-γ alone, FIG. 10
  temporal iNOS response to IFN-γ alone: not sustained
[1]; 24 hrs of LPS, then IFN-γ delayed or immediately after, FIGS. 4B-4C
  iNOS levels after prior LPS input: robustly increased iNOS levels
[1]; IFN-γ with LPS, concomitantly or in series, through 72 hours
  effect on LPS-induced iNOS expression (supra-additivity): amplifies LPS-induced iNOS expression
[1]; lower LPS and higher IL-4 concentrations, FIG. 5B-5C
  iNOS expression in IL-4 pre-treated cells, IFN-γ with LPS versus LPS alone: greater iNOS expression was observed
[1]; [3]
  sensitivity of iNOS response, IFN-γ versus TNF-α as second pro-inflammatory stimulus: more sensitive to IFN-γ
